US5723462A, “Certain fused pyrrolecarboxamides a new class of GABA brain receptor ligands” (Neurogen Corporation, priority 1996, dated 1998)

Tested on: GABA receptor
Experiment: not given
Settings: Tallman et al., 1978; cited from earlier work

SMILES | blockade of the enhancement of benzodiazepine binding by GABA agonists
CN1CCc2cc3c(cc2C1C1OC(=O)c2c1ccc1c2OCO1)OCO3 (single isomer, unassigned; (-)) [(-) bicuculline] | much less active
CN1CCc2cc3c(cc2C1C1OC(=O)c2c1ccc1c2OCO1)OCO3 (single isomer, unassigned; (+)) [(+) bicuculline] | blocked

Target: GABAa receptor
Experiment: GABAa receptor binding assay ([3H]-Flumazenil, RO15-1788 displacement, rat cortical tissue)
Settings: 0.5 nM 3H-RO15-1788, 30 min at 4° C.
Experimental: The pharmaceutical utility of compounds of this invention are indicated by the following assay for GABAa receptor binding activity.
Assays are carried out as described in Thomas and Tallman (J. Bio. Chem. 156: 9838-9842, J. Neurosci. 3: 433-440, 1983). Rat cortical tissue is dissected and homogenized in 25 volumes (w/v) of 0.05M Tris HCl buffer (pH 7.4 at 4° C.). The tissue homogenate is centrifuged in the cold (4° ) at 20,000×g for 20'. The supernatant is decanted and the pellet is rehomogenized in the same volume of buffer and again centrifuged at 20,000×g. The supernatant is decanted and the pellet is frozen at -20° C. overnight. The pellet is then thawed and rehomogenized in 25 volume (original wt/vol) of buffer and the procedure is carried out twice. The pellet is finally resuspended in 50 volumes (w/vol of 0.05M Tris HCl buffer (pH 7.4 at […]).
Incubations contain […] of tissue homogenate, […] of radioligand 0.5 nM (^3 H-RO15-1788 [^3 H-Flumazenil] specific activity 80 Ci/mmol), drug or blocker and buffer to a total volume of […]. Incubations are carried for 30 min at 4° C. then are rapidly filtered through GFB filters to separate free and bound ligand. Filters are washed twice with fresh 0.05M Tris HCl buffer (pH 7.4 at 4° C.) and counted in a liquid scintillation counter. 1.0 mM diazepam is added to some tubes to determine nonspecific binding. Data are collected in triplicate determinations, averaged and % inhibition of total specific binding is calculated. Total Specific Binding=Total-Nonspecific. In some cases, the amounts of unlabeled drugs is varied and total displacement curves of binding are carried out. Data are converted to IC50 or Ki.

SMILES | Ki
O=C(Nc1nccs1)c1c[nH]c2c1C(=O)CCCC2 [Compound 5, N-(2-Thiazolyl)-4-oxo-1,4,5,6,7,8-hexahydro-cyclohepta[b]pyrrole-3-carboxamide] | 2 nM
O=C(Nc1cccnc1)c1c[nH]c2c1C(=O)CCCC2 [Compound 6, N-(3-Pyridyl)-4-oxo-1,4,5,6,7,8-hexahydro-cyclohepta[b]pyrrole-3-carboxamide] | 25 nM
Cc1cnc2nc(NC(=O)c3c[nH]c4c3C(=O)CCC4)ccc2c1 [Compound 11] | 3 nM
O=C(Nc1ccsc1)c1c[nH]c2c1C(=O)CCC2 [Compound 2, N-(3-thienyl)-4-oxo-4,5,6,7-tetrahydro-1H-indole-3-carboxamide] | 3 nM
COc1ccc2ccc(NC(=O)c3c[nH]c4c3C(=O)CCC4)nc2n1 [Compound 3, N-(2-methoxy-1,8-napthyridin-7-yl)-4-oxo-4,5,6,7-tetrahydro-1H-indole-3-carboxamide] | 66 nM

Results, then the compound that gave them:

Ki | SMILES
83 nM | O=C(Nc1ccc2ccc(Cl)nc2n1)c1c[nH]c2c1C(=O)CCC2 [Compound 10, N-(2-Chloro-1,8-napthyridin-7-yl)-4-oxo-4,5,6,7-tetrahydro-1H-indole-3-carboxamide]
50 nM | O=C(Nc1ccc2ccccc2n1)c1c[nH]c2c1C(=O)CCC2 [Compound 12, N-(2-Quinolinyl)-4-oxo-4,5,6,7-tetrahydro-1H-indole-3-carboxamide]
2 nM | CC1(C)CCc2[nH]cc(C(=O)Nc3nccs3)c2C1=O [Compound 8, N-(2-Thiazolyl)-4-oxo-5,5-dimethyl-4,5,6,7-tetrahydro-1H-indole-3-carboxamide]
15 nM | CC1(C)CCc2[nH]cc(C(=O)Nc3ccsc3)c2C1=O [Compound 7, N-(3-Thienyl)-4-oxo-5,5-dimethyl-4,5,6,7-tetrahydro-1H-indole-3-carboxamide]
9 nM | Cc1cnc(NC(=O)c2c[nH]c3c2C(=O)CCC3)s1 [Compound 9, N-(5-Methyl-2-thiazolyl)-4-oxo-4,5,6,7-tetrahydro-1H-indole-3-carboxamide]
64 nM | O=C(Nc1ccc2nccnc2c1)c1c[nH]c2c1C(=O)CCC2 [Compound 13, N-(6-Quinoxalinyl)-4-oxo-4,5,6,7-tetrahydro-1H-indole-3-carboxamide]
11 nM | COc1ccc(NC(=O)c2c[nH]c3c2C(=O)CCC3)cn1 [Compound 1]
3 nM | O=C(Nc1ccccn1)c1c[nH]c2c1C(=O)CCC2 [Compound 4, N-(2-Pyridyl)-4-oxo-4,5,6,7-tetrahydro-1H-indole-3-carboxamide]
